Test results from patent publication US5817012A, “Method of determining an analyte” (Sudormed, Inc., priority 1997, dated 1998).
“And” between values parts separate entries of the source, which are not always exact repeats. Equal values may be shown once. “Also recorded” adds a separate entry of the source. Where a name gives a salt, the structure may show the parent alone.

Tests used:
[1] = Table 2; weak bases (Wilson, J., Abused Drugs, 1990); cited from earlier work
[2] = Example 6: cocaine collected on patch converted to BE and analyzed with Roche RIA; settings: seven days wear, subject who ingested cocaine, pH 11, 20 minutes
From the text: Absorption disks, 3/8 inch in diameter, are cut from Gelman membranes (Gelman 0.45μ (SU-450) Ultrabind Supported Membranes). These 3/8 inch disks are mounted at the center of a 1/4 inch diameter hole cut in the center of a one inch diameter circle of Tegaderm 1625 Transparent Dressing (available from Minnesota Mining and Manufacturing, St. Paul, Minn.) to form a patch.
The patches remain in place until they are removed seven days later from each subject.
Following elution, the analyte solutions derived from each of the patches are brought to a pH of 11 by the addition of NaOH to each of the solutions. The solutions are reacted for 20 minutes at pH 11 and at room temperature, after which the solutions are neutralized with HCl.

[3] = cited from earlier work
[4] = in vivo; cited from earlier work
[5] = FIG. 14: cocaine in dermal patches after smoked cocaine; settings: 42 mg smoked
[6] = FIG. 13: cocaine in dermal patches after intravenous cocaine HCl; settings: 32 mg cocaine HCl intravenously
Method: A dermal patch was then immediately placed on the subject's skin, and after 30 minutes this patch was removed and replaced by a new patch.

[7] = Example 12: amount of cocaine recovered on patch after nasal ingestion; settings: 126 mg nasally ingested; about 200 hours wear; 10 cm^2 disk
[8] = type: in vivo, human; settings: 60 mg codeine phosphate P.O.; first six hours; heating pad
Method: FIG. 16 is a graph depicting the results of an experiment in which a subject was administered codeine and a dermal patch was then placed on each of the subject's thighs. A heating pad which was heated to 105° F. was then placed over one thigh while the other thigh remained unheated. The patches were replaced each hour for six hours, and a final pair of patches was placed on the subject's thighs for one hour between 24 and 25 hours after the administration of the codeine.
Active perspiration can be caused by an increase in the body's temperature,such as during exercise. A further experiment was therefore conducted to see whether an increase in the temperature of only one area of the body could cause localized active perspiration. In this experiment, a subject was administered 60 mg of codeine phosphate (in the form of Naldecon CX P.O., 30 ml), and a dermal patch was then placed on each of the subject's thighs. A heating pad which was heated to 105° F. was then placed over one thigh while the other thigh remained unheated. The patches were replaced each hour for six hours, and a final pair of patches was placed on the subject's thighs for one hour between 24 and 25 hours after the administration of the codeine.

[9] = Example 20: codeine level in urine, Tegaderm-only patches and patches with absorbent material (Table 3); type: in vivo, human
From the text: Five patches comprising only Tegaderm™ 1625 wound dressing were applied to a subject. […] Six patches comprising Tegaderm™ 1625 and another absorbent material were also applied to the subject at the same time. The collection surface area of the absorbent material in these patches was 14 cm^2. Prior to applying each of the patches, the area of skin under each patch was first swabbed with alcohol in order to remove any contaminants present on the surface of the skin.
Twenty-four hours after the initial application of the patches to the subject, a pre-dose urine specimen and one of each of the two patch types were collected. The subject then orally consumed 60 mg of codeine phosphate (30 ml. Naldecon CX-60). This represents a typical codeine dose. At 30 and 48 hours post-dose, urine and one of each type of patch were collected.

[10] = literature (Schwartz; Martindale); cited from earlier work
[11] = type: in vivo, human; settings: seven days wear, subject who smoked a marijuana cigarette
Method: THC polyclonal antibody from sheep (available from Biogenesis, Bournmouth, England) is diluted 1:100 in PBS (pH 7.5). The antibodies are bound to Gelman 0.45μ (SU-450) Ultrabind Supported Membrane, following the protocol in Gelman Original Equipment Manufacturer application P.N. 31,084. The membranes are air dried. Disks, 3/8 inch in diameter, are cut from the coated Gelman membranes.
Each of the removed membranes is flushed five times with 300 μl of 0.2% Tween 20 in PBS. The membranes are incubated for 30 minutes in 100 μl of E-Z Screen Cannabinoid enzyme conjugate from the E-Z Screen Test Kit (available from Environmental Diagnostics, Inc., Burlington, N.C.).
After incubation, each membrane is flushed three times with 300 μl of 0.2% Tween 20 in PBS, followed by three flushes with PBS alone. The membranes are then incubated in TMB Membrane Peroxide Substrate (available from Kirkegaard & Perry Labs, Gaithersburg, Md.) for 10 minutes. A light blue background appears in all six membranes. […] No white dots appear on the three membranes taken from the subject who has never used marijuana.

In the case of `CC(N)Cc1ccccc1` (stereo not drawn) [Amphetamine], the pKa [1] is given as 9.8.
With `CN1[C@H]2CC[C@@H]1[C@@H](C(=O)O)[C@@H](OC(=O)c1ccccc1)C2` [BE, benzoylecgonine] the “concentration of BE in the subject's urine over time” value (in vivo) was “declining” and the “diagnostic analysis for BE in patch extract” value [2] was “tests positive”.
For `COC(=O)[C@H]1[C@@H](OC(=O)c2ccccc2)C[C@@H]2CC[C@H]1N2C` [Cocaine], the back-diffusion from patch (almost 200 hours) is listed as “without exhibiting significant back-diffusion; also recorded: significant back-diffusion was prevented”, the “concentration of cocaine on the dermal patch over time” value (almost 200 hours after ingestion, no specific binding chemistry) is listed as “rose immediately during the first hours of the test, and thereafter stayed at approximately the same level for the remaining 200 hours” and the “stability at pH values higher than 7” value [3] is listed as “unstable”. For the same compound, the “presence in perspiration and urine” value [4] was “present in perspiration but not in urine”, the “cocaine concentration in patch, 8 to 24 hours” value ([5]; patch wet with perspiration, worn 8 to 24 hours) was “a significant rise in concentration” and the “cocaine concentration in patch, 4 to 8 hours” value ([5]; patch worn between 4 and 8 hours) was “a decline”. The “analyte in patch worn 8 to 24 hours compared to patch worn 2 to 4 hours” value ([5]; subject actively perspired) was “significantly more analyte diffused into the patch worn between 8 and 24 hours”, the “concentration of cocaine in perspiration after the fourth hour” value [6] was “a steady decline” and the “cocaine recovered on the patch” value [7] was “approximately 500 ng”. The “cocaine recovered on the patch (in parentheses)” value [7] was about 0.5 mg.
For `COc1ccc2c3c1O[C@H]1[C@@H](O)C=C[C@H]4[C@@H](C2)N(C)CC[C@@]341` [Codeine, codeine], the “analyte in patches, heated versus unheated thigh” value [8] was “contained more analyte than the patches on the unheated thigh”, the “ratio of recovered codeine in the Tegaderm-only patches compared to the patches with an absorbent material” value ([9]; 24.4/18.1) was 136% and the “mean codeine level, all five patches having another absorbent material” value ([9]; 30 and 48 hours post-dose) was 18.1 ng/mL. For the same compound, the “mean codeine level, all four Tegaderm-only patches” value ([9]; 30 and 48 hours post-dose) was 24.4 ng/mL, the “Codeine Level, patch with absorbent material” value (“Codeine Level, patch” below) ([9]; 30 hours post-dose, 60 mg codeine phosphate orally, 14 cm^2) was 12.40 ng/mL and 23.99 ng/mL and the “urine codeine level” value ([9]; 48 hours post-dose) was “returned to baseline”. The “Codeine Level, urine sample” value ([9]; 48 hours post-dose, 60 mg codeine phosphate orally) was 0 ng/mL, the “Codeine Level, patch” value ([9]; 48 hours post-dose, 60 mg codeine phosphate orally, 14 cm^2) was 14.39 ng/mL and 19.41 ng/mL and 20.17 ng/mL and the “Codeine Level, Tegaderm-only patch” value ([9]; 48 hours post-dose, 60 mg codeine phosphate orally, 42 cm^2) was 17.69 ng/mL and 23.19 ng/mL. The concentration at 30 h ([9]; human, urine, po, 30 hours post-dose, 60 mg codeine phosphate orally, read-out: Codeine Level, urine sample) was 620 ng/mL, the “retention of codeine by both patch designs” value ([9]; in vivo) was “about 48 hours” and the “pre-dose presence of codeine” value ([9]; pre-dose urine and patch specimens) was “no codeine was present”. The “Codeine Level, Tegaderm-only patch” value ([9]; predose) was 0 ng/mL, the “Codeine Level, patch” value ([9]; predose) was 0 ng/mL and the “Codeine Level, urine sample” value ([9]; predose) was 0 ng/mL.
For `CCN(CC)C(=O)[C@@H]1C=C2c3cccc4[nH]cc(c34)C[C@H]2N(C)C1` [LSD], the protection from light [10] is listed as “must be kept from exposure to strong light”.
For `CN[C@@H](C)Cc1ccccc1` [Methamphetamine], the pKa [1] is given as 9.9.
In the case of `c1ccc(C2(N3CCCCC3)CCCCC2)cc1` [Phencyclidine], the pKa [1] is given as 8.5.
For `CCCCCc1cc(O)c2c(c1)OC(C)(C)[C@@H]1CCC(C)=C[C@@H]21` [THC, tetrahydrocannabinol], the “appearance of white dots on membranes (THC derivatives in sweat)” value [11] was “White dots appear over the background on the three membranes”.
In the case of `COC(=O)[C@H]1[C@@H](OC(=O)c2ccccc2)C[C@@H]2CC[C@H]1N2C` [cocaine hydrochloride], the protection from light [10] is given as “require protection from light”.
